Data from ChEMBL document CHEMBL1140860, “Synthesis and evaluation of dihydroartemisinin and dihydroartemisitene acetal dimers showing anticancer and antiprotozoal activity” (Bioorg Med Chem, 2009).

What was measured:
PC-3 = assay: Growth inhibition of human PC3 cells after 48 hrs by sulforhodamine B assay; type: functional; conditions: PC-3, 48 h
HL-60 = assay: Growth inhibition of human HL-60(TB) cells after 48 hrs by sulforhodamine B assay; type: functional; conditions: HL-60, 48 h
UACC-62 = assay: Growth inhibition of human UACC62 cells after 48 hrs by sulforhodamine B assay; type: functional; conditions: UACC-62, 48 h
SK-MEL-2 = assay: Growth inhibition of human SK-MEL-2 cells after 48 hrs by sulforhodamine B assay; type: functional; conditions: SK-MEL-2, 48 h
CCRF-CEM = assay: Growth inhibition of human CCRF-CEM cells after 48 hrs by sulforhodamine B assay; type: functional
OVCAR-4 = assay: Growth inhibition of human OVCAR4 cells after 48 hrs by sulforhodamine B assay; type: functional; conditions: OVCAR-4, 48 h
COLO 205 = assay: Growth inhibition of human COLO205 cells after 48 hrs by sulforhodamine B assay; type: functional; conditions: COLO 205, 48 h
SNB-75 = assay: Growth inhibition of human SNB75 cells after 48 hrs by sulforhodamine B assay; type: functional; conditions: SNB-75, 48 h
A549 = assay: Growth inhibition of human A549 cells after 48 hrs by sulforhodamine B assay; type: functional; conditions: A549, 48 h
OVCAR-5 = assay: Growth inhibition of human OVCAR5 cells after 48 hrs by sulforhodamine B assay; type: functional; conditions: OVCAR-5, 48 h
SW-620 = assay: Growth inhibition of human SW620 cells after 48 hrs by sulforhodamine B assay; type: functional; conditions: SW-620, 48 h
SN12C = assay: Growth inhibition of human SN12C cells after 48 hrs by sulforhodamine B assay; type: functional
[1] = Selectivity index, ratio of TC50 for african green monkey (Cercopithecus aethiops) Vero cells to IC50 for chloroquine-resistant Plasmodium falciparum W2; type: toxicity, cell-based
NCI-H226 = assay: Growth inhibition of human NCI-H226 cells after 48 hrs by sulforhodamine B assay; type: functional; conditions: NCI-H226, 48 h
HCT-15 = assay: Growth inhibition of human HCT15 cells after 48 hrs by sulforhodamine B assay; type: functional; conditions: HCT-15, 48 h
DU-145 = assay: Growth inhibition of human DU145 cells after 48 hrs by sulforhodamine B assay; type: functional; conditions: DU-145, 48 h
NCI-H322M = assay: Growth inhibition of human NCI-H322M cells after 48 hrs by sulforhodamine B assay; type: functional
LOX IMVI = assay: Growth inhibition of human LOXIMVI cells after 48 hrs by sulforhodamine B assay; type: functional
SF-268 = assay: Growth inhibition of human SF268 cells after 48 hrs by sulforhodamine B assay; type: functional; conditions: SF-268, 48 h
786-0 = assay: Growth inhibition of human 786-0 cells after 48 hrs by sulforhodamine B assay; type: functional; conditions: 786-0, 48 h
NCI-H522 = assay: Growth inhibition of human NCI-H522 cells after 48 hrs by sulforhodamine B assay; type: functional; conditions: NCI-H522, 48 h
UO-31 = assay: Growth inhibition of human UO31 cells after 48 hrs by sulforhodamine B assay; type: functional; conditions: UO-31, 48 h
Malme-3M = assay: Growth inhibition of human MALME-3M cells after 48 hrs by sulforhodamine B assay; type: functional
Plasmodium falciparum [2] = assay: Antimalarial activity after 72 hrs against chloroquine-sensitive Plasmodium falciparum D6 infected in erythrocytes by LDH assay; type: functional, organism-based; conditions: D6, 72 h
BT-549 = assay: Growth inhibition of human BT549 cells after 48 hrs by sulforhodamine B assay; type: functional; conditions: BT-549, 48 h
SK-MEL-28 = assay: Growth inhibition of human SK-MEL-28 cells after 48 hrs by sulforhodamine B assay; type: functional; conditions: SK-MEL-28, 48 h
IGROV-1 = assay: Growth inhibition of human IGROV1 cells after 48 hrs by sulforhodamine B assay; type: functional; conditions: IGROV-1, 48 h
SF-295 = assay: Growth inhibition of human SF295 cells after 48 hrs by sulforhodamine B assay; type: functional; conditions: SF-295, 48 h
NCI-H23 = assay: Growth inhibition of human NCI-H23 cells after 48 hrs by sulforhodamine B assay; type: functional; conditions: NCI-H23, 48 h
SK-OV-3 = assay: Growth inhibition of human SKOV3 cells after 48 hrs by sulforhodamine B assay; type: functional; conditions: SK-OV-3, 48 h
OVCAR-8 = assay: Growth inhibition of human OVCAR8 cells after 48 hrs by sulforhodamine B assay; type: functional; conditions: OVCAR-8, 48 h
EKVX = assay: Growth inhibition of human EKVX cells after 48 hrs by sulforhodamine B assay; type: functional
[3] = Growth inhibition of human […] cells after 48 hrs by sulforhodamine B assay; type: functional
M14 = assay: Growth inhibition of human M14 cells after 48 hrs by sulforhodamine B assay; type: functional; conditions: M14, 48 h
KM12 = assay: Growth inhibition of human KM12 cells after 48 hrs by sulforhodamine B assay; type: functional; conditions: KM12, 48 h
HOP-92 = assay: Growth inhibition of human HOP92 cells after 48 hrs by sulforhodamine B assay; type: functional; conditions: HOP-92, 48 h
[4] = Growth inhibition of human Hs 578T cells after 48 hrs by sulforhodamine B assay; type: functional
Plasmodium falciparum [5] = assay: Antimalarial activity after 72 hrs against chloroquine-resistant Plasmodium falciparum W2 infected erythrocytes by LDH assay; type: functional, organism-based; conditions: W2, 72 h
MCF7 = assay: Growth inhibition of human MCF7 cells after 48 hrs by sulforhodamine B assay; type: functional; conditions: MCF7, 48 h
CAKI-1 = assay: Growth inhibition of human Caki1 cells after 48 hrs by sulforhodamine B assay; type: functional; conditions: CAKI-1, 48 h
HCT-116 = assay: Growth inhibition of human HCT116 cells after 48 hrs by sulforhodamine B assay; type: functional; conditions: HCT-116, 48 h
SK-MEL-5 = assay: Growth inhibition of human SK-MEL-5 cells after 48 hrs by sulforhodamine B assay; type: functional; conditions: SK-MEL-5, 48 h
MDA-N = assay: Growth inhibition of human MDA-N cells after 48 hrs by sulforhodamine B assay; type: functional
UACC-257 = assay: Growth inhibition of human UACC257 cells after 48 hrs by sulforhodamine B assay; type: functional; conditions: UACC-257, 48 h
SR = assay: Growth inhibition of human SR cells after 48 hrs by sulforhodamine B assay; type: functional
HOP-62 = assay: Growth inhibition of human HOP62 cells after 48 hrs by sulforhodamine B assay; type: functional; conditions: HOP-62, 48 h
RXF 393 = assay: Growth inhibition of human RXF393 cells after 48 hrs by sulforhodamine B assay; type: functional; conditions: RXF 393, 48 h
TK-10 = assay: Growth inhibition of human TK10 cells after 48 hrs by sulforhodamine B assay; type: functional; conditions: TK-10, 48 h
U-251 = assay: Growth inhibition of human U251 cells after 48 hrs by sulforhodamine B assay; type: functional; conditions: U-251, 48 h
NCI-H460 = assay: Growth inhibition of human NCI-H460 cells after 48 hrs by sulforhodamine B assay; type: functional; conditions: NCI-H460, 48 h

C[C@H]1[C@@H](OCC(O)CO[C@@H]2C[C@@H]3CC[C@@H](C)[C@@H]4CC[C@@]5(C)OO[C@@]34[C@H](O2)O5)O[C@@H]2O[C@@]3(C)CC[C@H]4[C@H](C)CC[C@@H]1[C@@]24OO3 (some centres not stated)
GI50 (PC-3): 35 nM | GI50 (HL-60): 62 nM | GI50 (UACC-62): 296 nM | GI50 (SK-MEL-2): 14200 nM | GI50 (CCRF-CEM): 104 nM | GI50 (OVCAR-4): 209 nM | GI50 (COLO 205): 40 nM | GI50 (SNB-75): 8250 nM | GI50 (A549): 505 nM | GI50 (OVCAR-5): 17700 nM | GI50 (SW-620): 99 nM | GI50 (SN12C): 263 nM | selectivity ratio [1]: > 6430 | GI50 (NCI-H226): 61700 nM | GI50 (HCT-15): 27 nM | GI50 (DU-145): 13800 nM | GI50 (NCI-H322M): 62500 nM | GI50 (LOX IMVI): 110 nM | GI50 (SF-268): 13700 nM | GI50 (786-0): 417 nM | GI50 (NCI-H522): 521 nM | GI50 (UO-31): 108 nM | GI50 (Malme-3M): 8820 nM | IC50 (Plasmodium falciparum [2]): 300 nM | GI50 (BT-549): 408 nM | GI50 (SK-MEL-28): 9390 nM | GI50 (IGROV-1): 13100 nM | GI50 (SF-295): 9520 nM | GI50 (NCI-H23): 135 nM | GI50 (SK-OV-3): 21400 nM | GI50 (OVCAR-8): 252 nM | GI50 (EKVX): 307 nM | GI50 [3]: 24 nM | GI50 (M14): 14900 nM | GI50 (KM12): 166 nM | GI50 (HOP-92): 384 nM | GI50 [4]: 12500 nM | IC50 (Plasmodium falciparum [5]): 1200 nM | GI50 (MCF7): 95 nM | GI50 (CAKI-1): 256 nM | GI50 (HCT-116): 49 nM | GI50 (SK-MEL-5): 95 nM | GI50 (MDA-N): 368 nM | GI50 (UACC-257): 257 nM | GI50 (SR): 178 nM | GI50 (HOP-62): 13300 nM | GI50 (RXF 393): 213 nM

C[C@H]1[C@@H](O[C@H]2CC[C@@H](O[C@H]3O[C@@H]4O[C@@]5(C)CC[C@H]6[C@H](C)CC[C@@H]([C@H]3C)[C@@]46OO5)CC2)O[C@@H]2O[C@@]3(C)CC[C@H]4[C@H](C)CC[C@@H]1[C@@]24OO3
GI50 (PC-3): 11 nM | GI50 (HL-60): 17 nM | GI50 (UACC-62): 22 nM | GI50 (SK-MEL-2): 24 nM | GI50 (CCRF-CEM): < 5 nM | GI50 (OVCAR-4): 24 nM | GI50 (COLO 205): 7 nM | GI50 (SNB-75): 30 nM | GI50 (A549): 20 nM | GI50 (OVCAR-5): 152 nM | GI50 (SW-620): 12 nM | GI50 (SN12C): 25 nM | selectivity ratio [1]: > 915 | GI50 (TK-10): 29 nM | GI50 (NCI-H226): 347 nM | GI50 (HCT-15): 14 nM | GI50 (DU-145): 28 nM | GI50 (NCI-H322M): 16600 nM | GI50 (LOX IMVI): 17 nM | GI50 (SF-268): 34 nM | GI50 (786-0): 31 nM | GI50 (NCI-H522): 21 nM | GI50 (UO-31): 18 nM | GI50 (U-251): 19 nM | GI50 (Malme-3M): 44 nM | IC50 (Plasmodium falciparum [2]): 4600 nM | GI50 (BT-549): 42 nM | GI50 (NCI-H460): 17 nM | GI50 (SK-MEL-28): 85 nM | GI50 (IGROV-1): 6750 nM | GI50 (SF-295): 28 nM | GI50 (NCI-H23): 22 nM | GI50 (SK-OV-3): 34 nM | GI50 (OVCAR-8): 19 nM | GI50 (EKVX): 24 nM | GI50 [3]: < 5 nM | GI50 (M14): 27 nM | GI50 (KM12): 12 nM | GI50 (HOP-92): 17 nM | GI50 [4]: 49 nM | IC50 (Plasmodium falciparum [5]): 8000 nM | GI50 (MCF7): 16 nM | GI50 (CAKI-1): 37 nM | GI50 (HCT-116): 16 nM | GI50 (SK-MEL-5): 17 nM | GI50 (MDA-N): 24 nM | GI50 (UACC-257): 27 nM | GI50 (SR): 14 nM | GI50 (HOP-62): 12300 nM | GI50 (RXF 393): 18 nM
